Data on 32 compounds can be found in patent US9242933B2 (AbbVie Deutschland GmbH & Co. KG, priority 2007, dated 2016).

The structures appear in SMILES notation.

T1 sequence (Q14416 19-872): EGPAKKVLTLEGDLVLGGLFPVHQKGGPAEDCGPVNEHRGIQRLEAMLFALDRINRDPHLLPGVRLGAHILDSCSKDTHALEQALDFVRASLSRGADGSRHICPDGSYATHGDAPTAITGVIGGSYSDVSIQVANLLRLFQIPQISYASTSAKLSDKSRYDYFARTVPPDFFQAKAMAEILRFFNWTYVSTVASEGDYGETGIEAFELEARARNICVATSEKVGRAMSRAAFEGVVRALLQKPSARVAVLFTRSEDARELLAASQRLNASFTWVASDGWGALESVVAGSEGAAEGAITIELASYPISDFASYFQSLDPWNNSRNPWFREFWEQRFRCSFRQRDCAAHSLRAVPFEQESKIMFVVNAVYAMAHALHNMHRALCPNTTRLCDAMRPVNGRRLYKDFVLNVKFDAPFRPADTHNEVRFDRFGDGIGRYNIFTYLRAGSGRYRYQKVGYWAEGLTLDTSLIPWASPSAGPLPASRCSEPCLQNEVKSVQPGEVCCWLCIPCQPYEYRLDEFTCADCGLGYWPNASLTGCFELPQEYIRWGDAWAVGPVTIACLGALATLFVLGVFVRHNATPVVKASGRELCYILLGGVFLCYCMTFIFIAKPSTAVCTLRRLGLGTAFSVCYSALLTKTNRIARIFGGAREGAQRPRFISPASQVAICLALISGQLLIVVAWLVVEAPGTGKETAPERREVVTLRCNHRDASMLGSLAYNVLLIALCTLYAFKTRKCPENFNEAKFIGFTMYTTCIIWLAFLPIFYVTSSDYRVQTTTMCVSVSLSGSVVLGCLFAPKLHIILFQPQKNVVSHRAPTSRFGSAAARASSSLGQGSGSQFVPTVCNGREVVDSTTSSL

This assay concerns the target T1, human mGlu2 receptor (Homo sapiens, UniProt Q14416).
T1 construct: expressed in transfected cells; host or cells: HEK293
Kind of assay: FLIPR intracellular Ca2+ assay, potentiation of glutamate response in HEK293 clone expressing mGlu2 receptor, rGLAST and Galpha16. Format: cell-based. The settings on record: 1 μM glutamate added ten minutes after test compound, HEK293 cells with human mGlu2, rGLAST, Galpha16, read-out: EC50 values of potentiation effect to glutamate. In a few lines:
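HEK293 cells stably expressing human mGlu2, rat GLAST and Gα16 were loaded with 2 µM Fluo-4 AM and intracellular Ca2+ read by FLIPR. Compound added alone (agonism), then with submaximal glutamate (e.g. 1 µM; potentiation). Background-subtracted peaks normalized to 100 µM glutamate response; EC50 from four-parameter fit.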
Usually EC50 stands for the concentration that produces a half-maximal response. `CCC(C)Oc1cccc(NCc2c[nH]nc2-c2ccc(C(F)(F)F)cc2)c1` (centres unmarked) [Example 378, (3-sec-Butoxy-phenyl)-[3-(4-trifluoromethyl-phenyl)-1H-pyrazol-4-ylmethyl]-amine]: the EC50 is 1 to 10 µM.
In the case of `CCCN1Cc2cc(OCc3c[nH]nc3-c3cccc(F)c3)ccc2C1=O` [Example 536, 5-[3-(3-Fluorophenyl)-1H-pyrazol-4-ylmethoxy]-2-propyl-2,3-dihydro-isoindol-1-one] it was less than 1 µM; in that of `CCCC(=O)c1ccc(NCc2cnn(CC)c2C)cc1` [Example 55, 1-{4-[(1-Ethyl-5-methyl-1H-pyrazol-4-ylmethyl)amino]phenyl}butan-1-one], 1 to 10 µM; in that of `CCCC(=O)c1ccc(NCc2ccco2)cc1` [Example 13, 1-{4-[(Furan-2-ylmethyl)amino]phenyl}butan-1-one], 1 to 10 µM.
In the case of `CCCC(=O)c1ccc(NCc2cnn(C)c2-c2ccccc2)cc1` [Example 73] it was less than 1 µM; in that of `CCCC(=O)c1ccc(NCc2c(C)n[nH]c2C)cc1` [Example 224, 1-{4-[(3,5-Dimethyl-1H-pyrazol-4-ylmethyl)-amino]-phenyl}-butan-1-one], 1 to 10 µM; in that of `CCCOc1ccc(NCc2c[nH]nc2C(C)(C)C)cc1` [Example 273, (3-tert-Butyl-1H-pyrazol-4-ylmethyl)-(4-propoxy-phenyl)-amine], 1 to 10 µM.
Consider `CCCC(=O)c1ccc(NCc2ccc(Cl)nc2Cl)cc1` [Example 307, 1-{4-[(2,6-Dichloro-pyridin-3-ylmethyl)-amino]-phenyl}-butan-1-one], for which the EC50 lay within 1 to 10 µM.
`CC(=O)c1ccc(OCc2c[nH]nc2-c2ccc(C(F)(F)F)cc2)cc1F` [Example 485, 1-{2-Fluoro-4-[3-(4-trifluoromethyl-phenyl)-1H-pyrazol-4-ylmethoxy]-phenyl}-ethanone]: the EC50 fell in the range of 1 to 10 µM.
In the case of `CCCC(=O)c1ccc(NCc2c(-c3ccccc3)noc2C)cc1` [Example 43, 1-{4-[(5-Methyl-3-phenylisoxazol-4-ylmethyl)amino]phenyl}butan-1-one] it was 1 to 10 µM.
In the case of `CC(C)COc1ccc(NCc2c[nH]nc2C(C)(C)C)cc1` [Example 286, (3-tert-Butyl-1H-pyrazol-4-ylmethyl)-(4-isobutoxy-phenyl)-amine] it was 1 to 10 µM; in that of `CCCC(=O)c1ccc(NCc2n[nH]cc2Br)cc1` [Example 522], 1 to 10 µM.
On to `CCCCN1Cc2cc(OCc3c[nH]nc3-c3ccccc3)ccc2C1=O` [Example 551, 2-Butyl-5-(3-phenyl-1H-pyrazol-4-ylmethoxy)-2,3-dihydro-isoindol-1-one], for which the EC50 is less than 1 µM.
With `CCCC(=O)c1cccc(NCc2n[nH]cc2-c2ccc(CC)cc2)c1` [Example 515, 1-(3-{[4-(4-Ethyl-phenyl)-1H-pyrazol-3-ylmethyl]-amino}-phenyl)-butan-1-one], the EC50 is 1 to 10 µM.
In the case of `CCCC(=O)c1ccc(NCc2cnc(-c3ccccc3)s2)cc1` [Example 246, 1-{4-[(2-Phenyl-thiazol-5-ylmethyl)-amino]-phenyl}-butan-1-one] it was 1 to 10 µM; in that of `O=C1c2ccc(OCc3c[nH]nc3-c3ccccc3)cc2CN1CCCC(F)(F)F` [Example 553, 5-(3-Phenyl-1H-pyrazol-4-ylmethoxy)-2-(4,4,4-trifluoro-butyl)-2,3-dihydro-isoindol-1-one], less than 1 µM; in that of `CCN1Cc2cc(OCc3c[nH]nc3-c3ccc(F)cc3)ccc2C1=O` [Example 559, 2-Ethyl-5-[3-(4-fluorophenyl)-1H-pyrazol-4-ylmethoxy]-2,3-dihydro-isoindol-1-one], less than 1 µM.
Turning to `CCCC(=O)c1ccc(NCc2ccc(COC(C)=O)o2)cc1` [Example 23, Acetic acid 5-[(4-butyrylphenylamino)methyl]furan-2-ylmethyl ester], the EC50 is 1 to 10 µM.
In the case of `CCCN1CCc2cc(OCc3c[nH]nc3-c3ccc(C(F)(F)F)cc3)ccc2C1=O` [Example 574, 2-Propyl-6-[3-(4-trifluoromethyl-phenyl)-1H-pyrazol-4-ylmethoxy]-3,4-dihydro-2H-isoquinolin-1-one] it was less than 1 µM; in that of `COC(=O)c1ccc(NCc2c[nH]nc2-c2ccc(Cl)cc2)cc1` [Example 443, 4-{[3-(4-Chloro-phenyl)-1H-pyrazol-4-ylmethyl]-amino}-benzoic acid methyl ester], 1 to 10 µM.
In the case of `CCCC(=O)c1cccc(NCc2c[nH]nc2-c2ccc(C(F)(F)F)cc2)c1` [Example 503, 1-(3-{[3-(4-Trifluoromethyl-phenyl)-1H-pyrazol-4-ylmethyl]-amino}-phenyl)-butan-1-one] it was 1 to 10 µM; in that of `CCCC(C)Oc1cccc(N(Cc2c[nH]nc2-c2ccc(C(F)(F)F)cc2)S(=O)(=O)CC(F)(F)F)c1` (centres unmarked) [Example 455, 2,2,2-Trifluoro-ethanesulfonic acid [3-(1-methyl-butoxy)-phenyl]-[3-(4-trifluoromethyl-phenyl)-1H-pyrazol-4-ylmethyl]-amide], 1 to 10 µM; in that of `CCCC(=O)c1ccc(NCc2n[nH]nc2-c2ccccc2)cc1` [Example 519], 1 to 10 µM.
In the case of `CCCC(=O)c1ccc(NCc2ccc(N3CCCCC3)nc2)cc1` [Example 312, 1-{4-[(3,4,5,6-Tetrahydro-2H-[1,2′]bipyridinyl-5′-ylmethyl)-amino]-phenyl}-butan-1-one] it was 1 to 10 µM.
Consider `CCCC(=O)c1ccc(NCc2cnn(C(C)C)c2)cc1` [Example 75, 1-{4-[(1-Isopropyl-1H-pyrazol-4-ylmethyl)amino]phenyl}butan-1-one], for which the EC50 lay in the range of 1 to 10 µM.
In the case of `CCCN1Cc2cc(NCc3n[nH]cc3-c3cccc(C(F)(F)F)c3)ccc2C1=O` [Example 582] it was 1 to 10 µM; in that of `CCCC(=O)c1ccc(OCc2c[nH]nc2-c2cccc(F)c2)cc1` [Example 497, 1-{4-[3-(3-Fluorophenyl)-1H-pyrazol-4-ylmethoxy]-phenyl}-butan-1-one], less than 1 µM; in that of `CCCN1Cc2cc(NCc3c[nH]nc3-c3cccc(F)c3)ccc2C1=O` [Example 580, 5-{[3-(3-Fluorophenyl)-1H-pyrazol-4-ylmethyl]-amino}-2-propyl-2,3-dihydro-isoindol-1-one], less than 1 µM.
In the case of `Cc1cc(=O)c2ccc(NCc3c[nH]nc3-c3ccc(C(F)(F)F)cc3)cc2o1` [Example 400, 2-Methyl-7-{[3-(4-trifluoromethyl-phenyl)-1H-pyrazol-4-ylmethyl]-amino}-chromen-4-one] it was 1 to 10 µM; in that of `CC(C)CN1Cc2cc(OCc3c[nH]nc3-c3ccc(C(F)(F)F)cc3)ccc2C1=O` [Example 587, 2-Isobutyl-5-[3-(4-trifluoromethyl-phenyl)-1H-pyrazol-4-ylmethoxy]-2,3-dihydro-isoindol-1-one], less than 1 µM; in that of `Cc1cc(C)nc(NCc2c[nH]nc2-c2ccc(C(F)(F)F)cc2)c1` [Example 341, (4,6-Dimethyl-pyridin-2-yl)-[3-(4-trifluoromethyl-phenyl)-1H-pyrazol-4-ylmethyl]-amine], 1 to 10 µM.
In the case of `CCCC(=O)c1ccc(NCc2cnc(Oc3ccc(OC)cc3)s2)cc1` [Example 260, 1-(4-{[2-(4-Methoxy-phenoxy)-thiazol-5-ylmethyl]-amino}-phenyl)-butan-1-one] it was 1 to 10 µM.
